Results from patent publication US6326466A, “Double-stranded RNA dependent protein kinase derived peptides to promote proliferation of cells and tissues in a controlled manner” (priority 1999, dated 2001).
Ends that are not written are not given here.

How the values were obtained:
[1] = system: 3T3442A cells; type: cell-based; conditions: one hour at 37EC
Experimental: A PKR peptide antagonist (50 μg) having the sequence […] (SEQ ID NO: 25) comprising a cell permeability subsequence (residues 1-16 of SEQ ID NO:25), a heme agglutinin-epitope tag subsequence (residues 17-25 of SEQ ID NO:25), and a PKR peptide antagonist subsequence (residues 26-46 of SEQ ID NO:25) was radiolabeled with [^125 I]-iodine by the chloramine-T method (Hunter, W. M. and Greenwood, F. C. Nature 194:495-496, 1962) and purified by size exclusion chromatography using BioGel P2 (BioRad, Inc.) 35 million CPM of radiolabeled PKR peptide was added to pre-confluent cultures of 3T3442A cells grown in medium containing 10% FBS. After 1 hour at 37° C., the media was aspirated and the cells were washed four times in phosphate buffered saline (PBS). Cells were removed from the culture dishes by scraping and collected by centrifugation (4EC, 750×g, 5 min). The wash buffer was removed and the cell pellet was dissolved in SDS-polyacrylamide gel buffer (Laemmli, Nature (London), 227:680-685, 1970). The sample was analyzed by SDS-tricine polyacrylamide gel electrophoresis using 4-20% gradient tricine-SDS gels and the radiolabeled peptide antagonist was visualized by autoradiography of dried gels. […]
The subcellular localization of the PKR peptide antagonist (SEQ ID NO:25) that had been internalized by 3T3442A cells was determined by confocal microscopy. […]

[2] = biological target: T1, PKR (dsRNA-dependent protein kinase) (Oryctolagus cuniculus) (UniProt Q287T5); experiment: competition; conditions: unlabeled poly(I)-poly(C) 80 ug/ml as competitor to TAR RNA
T1 sequence: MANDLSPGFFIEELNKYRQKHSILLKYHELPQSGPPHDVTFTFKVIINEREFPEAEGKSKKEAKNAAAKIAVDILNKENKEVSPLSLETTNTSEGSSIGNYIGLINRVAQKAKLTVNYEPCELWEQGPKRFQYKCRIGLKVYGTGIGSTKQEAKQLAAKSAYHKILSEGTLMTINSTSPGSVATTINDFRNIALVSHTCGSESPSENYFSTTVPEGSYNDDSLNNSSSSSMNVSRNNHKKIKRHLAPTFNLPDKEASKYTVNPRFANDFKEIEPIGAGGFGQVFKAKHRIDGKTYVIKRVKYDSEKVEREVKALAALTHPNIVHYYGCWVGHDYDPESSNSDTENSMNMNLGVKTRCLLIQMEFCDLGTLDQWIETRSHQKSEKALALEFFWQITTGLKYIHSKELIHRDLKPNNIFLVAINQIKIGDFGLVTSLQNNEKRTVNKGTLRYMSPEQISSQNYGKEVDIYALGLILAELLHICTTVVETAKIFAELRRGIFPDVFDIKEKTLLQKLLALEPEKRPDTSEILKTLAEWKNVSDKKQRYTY

“AAVALLPAVLLALLAPYPYDVPDYAKKEAKNAAAKLAVEILNKEKK [SEQ ID NO:25]” was tested, and the “subcellular localization of internalized peptide (confocal microscopy, anti-HA)” value [1] was “obvious, intense localization of the epitope-tagged peptide to the cell cytoplasm”.

poly(I)-poly(C) was tested, and the binding signal (% inhibition of TAR complex) [2] was 60.
